Measured values taken from patent publication US9000047B2, “Compound inhibiting activation of the enzyme Erk 1/2 to be used in the treatment of neurodegenerative illnesses” (Farmalider, S.A., priority 2010, dated 2015).

Key:
[1] = tested on: protein kinase Erk 1/2; experiment: ELISA assay for the detection of the tPA-induced activation of Erk 1/2 in primary hippocampal neurons; assay type: cell-based, mouse; conditions: for normalised Erk 1/2 values, Mean value (arbitrary units): phospho-Erk 1/2 vs total Erk 1/2, 15 minutes pre-incubation with inhibitor, then tPA 20 μg/ml for 1 hour, tPA alone = 1, negative control 0.61
Text: The capacity to inhibit the activation of the protein kinase Erk 1/2 presented by the Compound of formula (I) has been determined by means of the ELISA (Enzyme-Linked Immunoadsorbent Assay) technique, as described in the Examples section.
In the ELISA assays, neurons from primary cultures of hippocampi isolated from mouse embryos (day 16.5 of gestation) were used, following the protocol described by Goslin and Banker (Goslin K and Banker G (1991) Culturing Nerve Cells, MIT Press, Cambridge, Mass.). This culture was used because the hippocampus is the main region affected in Alzheimer's disease and they are non-transformed cells.
10,000 cells/well were seeded in 96 well plates (Nunc) pre-treated with poly-L-Lys (SIGMA) and left under culture for 7 days.
The treatment with tPA was performed by adding it at 20 μg/ml (without changing the medium), for 1 hour. The treatment with the inhibitor, the compound of formula (I), was performed by means of a 15 minutes pre-incubation prior to the addition of tPA, as described above.
Following the treatments, the cells were fixed with methanol at a temperature of −20° C. for 5 min, and an ELISA assay was performed in order to detect the activation of Erk 1/2.
The wells were washed three times with TBST (Tris-buffered saline, 0.1% Triton® X-100) and blocked with 5% horse serum in TBST for 1 h at 37° C. They were once again washed with TBST, […] of the corresponding primary antibody (anti-phospho-Erk 1/2 Cell Signalling, catalogue number 9101, 1/500 or total Erk 1/2, Upstate catalogue number 06-182 1/1000 in 3% bovine serum albumin in TBST) were added and it was incubated overnight at 4° C.
After 4 washings with TBST, 0.45 μg/ml of the secondary alkaline-phospatase-coupled anti-rabbit antibody (DAKO, 1/800 in 3% bovine serum albumin in TBST) were added and it was kept for 1 h at 37° C.
4 washings with TBST were performed and it was developed using 4-methylumbelliferyl phosphate as the substrate (1 mg/ml in 0.2 M triethanolamine at pH 8.5) for 30 min at room temperature in the dark.
The results were quantified by means of fluorescence reading using the Cytofluor 235 fluorometer with an excitation filter of 360/40 and an emission filter of 460/40.
All the treatments were performed in sextuplicate in each experiment: 3 points for phosphorylated Erk 1/2 and 3 points for total Erk 1/2. At least 4 independent experiments were performed.
The following were used as controls: • 1) cells without treatment (negative control), • 2) cells treated with tPA and without an inhibitor (positive control), and • 3) cells incubated only with the secondary antibody and the substrate (negative control in the ELISA technique). […]

[2] = tested on: Hippocampal neurons; experiment: TUNEL assay for the detection of cellular apoptosis induced by β-amyloid peptide in hippocampal neurons; assay type: cell-based, mouse
Description: In a second in vitro assay, the apoptosis in nerve cells was measured by means of the TUNEL technique described in R. Sgonc et al., Trends Genetics, 1994, 10, 41-42. Apoptosis is the function that controls the death of a biological unit in a programmed manner.
Hippocampal neurons (obtained as described in Example 1) were cultured in 24 well plates (Nunc) at a density of 100,000 cells/well.
After 7 days under culture, β-amyloid peptide 1-40 (Aβ1-40) (Amyloid βProtein (1-40) trifluoroacetate salt, Bachem) (20 μM) was added and the cells were incubated for 72 h.
In order to study the inhibitory effect of the compound of formula (I), the cells were pre-incubated for 15 minutes with said compound at a concentration of 30 μM prior to the addition of the β-amyloid peptide, Aβ1-40.
After 72 h, the cells were fixed and the apoptotic neurons were detected by means of the TUNEL technique (Sgonc, R. et al. (1994) Trends Genetics 10, 41-42) with the in situ “cell death detection” kit, POD (Roche). In said kit, fluorescein-dUTP was used to label the DNA chain cleavage, which makes it possible to directly visualise the staining of the nuclei of the apoptotic neurons in the fluorescence microscope.
Parallel to this, the neuronal nuclei were stained with a specific monoclonal antibody (mouse anti-neuronal nuclei (NeuN) monoclonal antibody, 0.5 μg/ml, Chemicon) and a secondary anti-mouse Cy3 antibody (3.75 μg/ml, Jackson Immunoresearch Laboratories).
The quantification was performed by counting the positive nuclei following the TUNEL staining in 3 random fields and expressed as the % of dead neurons with respect to the total number of neurons in each field. Each inhibitor was assayed in triplicate in 4 independent experiments.
As a negative control, cells cultured for the same period of time, without treatment with the β-amyloid peptide (measurement of baseline spontaneous apoptosis), were used. As a positive control of 100% apoptosis, treatment with DNAse (20 U/ml) was used, following the procedure indicated in the commercial kit.
The value of the positive control (treatment with DNAse) was considered to be 100 and the rest of the measurements were adjusted in relation to this value.

[3] = 15 minutes pre-incubation with inhibitor (compound of formula (I) 30 μM), then Aβ1-40 20 μM for 72 h, DNAse positive control = 100, negative control 0.4

Row | Compound | inhibition of the activation of the protein kinase Erk 1/2 induced by tPA (in words) ([1]; ELISA, hippocampal neurons) | normalised Erk 1/2 values, Mean value (arbitrary units) [1] [arbitrary units] | apoptosis of nerve cells, Mean value (%) of dead neurons [2, 3] [%] | inhibition of the apoptosis induced by the β-amyloid peptide (in words) ([2]; TUNEL, neurons cultured in vitro) | apoptosis of nerve cells, Mean value (%) of dead neurons ([2]; Aβ1-40 20 μM alone for 72 h, no inhibitor, DNAse positive control = 100) [%]
1 | NCC12CCC3CC(CC3C1)C2 (centres unmarked) [Compound of formula (I)] | effectively inhibits | 0.61 | 2.8 | efficiently inhibited | –
2 | C[C@]12N[C@H](Cc3ccccc31)c1ccccc12 [Dizocilpine (MK-801), dizocilpine] | – | 0.73 | – | – | –
3 | CC12CC3CC(C)(C1)CC(N)(C3)C2 [Memantine, memantine] | – | 0.75 | 4 | – | –
4 | Amyloid βProtein (1-40) trifluoroacetate salt [β-amyloid peptide (Aβ1-40)] | – | – | – | – | 83.8
